Consider 21 molecules from patent EP4043466B1, “PRC2 INHIBITORS” (Mirati Therapeutics, Inc., priority 2018, dated 2019).

The target in test [1] is purified human, His-tagged PRC2 complex (Homo sapiens, UniProt O75530+Q15910). Briefly: Hot Spot HMT assay: inhibition of PRC2 enzymatic activity (transfer of tritiated methyl from SAM to core histone, filter binding). It is filed as biochemical. The following applies: Inhibition of PRC2-mediated enzymatic activity; 10 nM PRC2 complex, 0.05 mg/ml core histone H3, 1 uM 3H-SAM, 1 hr at 30°C. A digest of the protocol: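 Serial compound dilutions starting at 1.0 µM were pre-incubated 20 min at 30°C with 10 nM complex (His-EZH2, Flag-EED, His-SUZ12, His-AEBP2, His-RbAp48) and 0.05 mg/ml core H3. Reaction ran 1 hr at 30°C after adding 1 uM [3H]-SAM; scintillation counting followed filtration.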
purified human, His-tagged PRC2 complex, sequence (Q15910 whole entry): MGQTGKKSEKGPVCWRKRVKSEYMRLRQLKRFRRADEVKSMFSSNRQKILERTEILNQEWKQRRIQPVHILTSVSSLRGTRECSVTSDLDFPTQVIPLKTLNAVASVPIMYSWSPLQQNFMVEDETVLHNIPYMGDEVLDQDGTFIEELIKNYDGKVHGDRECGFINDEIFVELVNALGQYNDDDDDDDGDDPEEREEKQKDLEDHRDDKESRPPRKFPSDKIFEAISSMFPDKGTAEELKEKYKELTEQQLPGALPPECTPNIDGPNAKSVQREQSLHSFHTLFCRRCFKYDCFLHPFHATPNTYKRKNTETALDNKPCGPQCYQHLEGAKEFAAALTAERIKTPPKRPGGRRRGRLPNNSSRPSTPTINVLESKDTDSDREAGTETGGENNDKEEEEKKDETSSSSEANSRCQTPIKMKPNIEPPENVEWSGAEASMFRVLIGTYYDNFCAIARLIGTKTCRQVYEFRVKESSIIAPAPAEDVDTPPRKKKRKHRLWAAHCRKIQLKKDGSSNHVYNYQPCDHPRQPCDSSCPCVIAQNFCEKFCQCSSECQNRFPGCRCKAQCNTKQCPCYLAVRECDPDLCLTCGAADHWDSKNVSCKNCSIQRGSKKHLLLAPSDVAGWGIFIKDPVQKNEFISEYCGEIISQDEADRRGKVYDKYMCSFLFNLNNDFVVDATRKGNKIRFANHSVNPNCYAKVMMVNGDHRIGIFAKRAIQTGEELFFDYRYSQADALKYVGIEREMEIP
purified human, His-tagged PRC2 complex, sequence (O75530 whole entry): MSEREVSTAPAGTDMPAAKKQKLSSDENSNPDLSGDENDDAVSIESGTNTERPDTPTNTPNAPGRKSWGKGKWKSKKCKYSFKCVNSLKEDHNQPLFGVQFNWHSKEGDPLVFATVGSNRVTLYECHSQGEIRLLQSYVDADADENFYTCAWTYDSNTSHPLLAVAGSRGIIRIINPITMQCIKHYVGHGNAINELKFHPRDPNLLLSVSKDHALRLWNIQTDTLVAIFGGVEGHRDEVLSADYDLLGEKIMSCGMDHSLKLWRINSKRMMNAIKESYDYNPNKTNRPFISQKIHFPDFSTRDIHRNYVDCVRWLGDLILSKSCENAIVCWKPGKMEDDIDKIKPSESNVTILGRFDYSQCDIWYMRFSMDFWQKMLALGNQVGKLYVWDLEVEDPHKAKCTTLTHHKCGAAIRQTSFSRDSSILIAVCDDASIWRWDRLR
purified human, His-tagged PRC2 complex, sequence (Q15022 whole entry partner): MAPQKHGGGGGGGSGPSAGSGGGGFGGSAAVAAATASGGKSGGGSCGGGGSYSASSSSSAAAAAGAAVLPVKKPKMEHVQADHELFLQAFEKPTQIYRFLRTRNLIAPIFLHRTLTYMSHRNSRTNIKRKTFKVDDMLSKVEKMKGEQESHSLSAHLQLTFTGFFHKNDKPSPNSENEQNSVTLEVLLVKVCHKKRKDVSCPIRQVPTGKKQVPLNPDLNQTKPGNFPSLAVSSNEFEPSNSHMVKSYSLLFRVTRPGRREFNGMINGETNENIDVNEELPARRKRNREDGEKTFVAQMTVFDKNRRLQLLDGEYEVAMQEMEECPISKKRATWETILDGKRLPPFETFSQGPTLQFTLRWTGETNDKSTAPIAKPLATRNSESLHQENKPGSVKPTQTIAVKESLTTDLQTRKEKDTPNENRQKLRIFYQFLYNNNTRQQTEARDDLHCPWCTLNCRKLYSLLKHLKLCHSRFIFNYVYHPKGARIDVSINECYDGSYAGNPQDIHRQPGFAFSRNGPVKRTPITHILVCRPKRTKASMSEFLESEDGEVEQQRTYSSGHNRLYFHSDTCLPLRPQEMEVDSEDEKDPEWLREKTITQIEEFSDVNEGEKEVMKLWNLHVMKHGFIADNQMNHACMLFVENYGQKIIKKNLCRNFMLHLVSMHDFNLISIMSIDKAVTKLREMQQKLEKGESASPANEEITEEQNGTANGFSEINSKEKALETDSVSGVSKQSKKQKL
purified human, His-tagged PRC2 complex, sequence (Q6ZN18 whole entry partner): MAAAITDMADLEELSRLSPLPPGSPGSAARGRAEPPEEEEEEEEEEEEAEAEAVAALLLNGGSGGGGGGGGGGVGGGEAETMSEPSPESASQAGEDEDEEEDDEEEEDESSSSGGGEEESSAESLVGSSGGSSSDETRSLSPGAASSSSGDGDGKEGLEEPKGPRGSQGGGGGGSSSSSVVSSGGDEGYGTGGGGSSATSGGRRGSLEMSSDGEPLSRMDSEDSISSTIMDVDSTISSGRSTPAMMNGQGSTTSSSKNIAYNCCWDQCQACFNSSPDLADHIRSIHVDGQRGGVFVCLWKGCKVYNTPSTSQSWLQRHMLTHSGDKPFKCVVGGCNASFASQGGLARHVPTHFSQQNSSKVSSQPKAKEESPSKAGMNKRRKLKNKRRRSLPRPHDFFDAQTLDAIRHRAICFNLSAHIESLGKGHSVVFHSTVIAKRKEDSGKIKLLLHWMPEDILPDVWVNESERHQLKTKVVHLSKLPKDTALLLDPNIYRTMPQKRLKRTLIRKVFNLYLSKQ
purified human, His-tagged PRC2 complex, sequence (Q09028 whole entry partner): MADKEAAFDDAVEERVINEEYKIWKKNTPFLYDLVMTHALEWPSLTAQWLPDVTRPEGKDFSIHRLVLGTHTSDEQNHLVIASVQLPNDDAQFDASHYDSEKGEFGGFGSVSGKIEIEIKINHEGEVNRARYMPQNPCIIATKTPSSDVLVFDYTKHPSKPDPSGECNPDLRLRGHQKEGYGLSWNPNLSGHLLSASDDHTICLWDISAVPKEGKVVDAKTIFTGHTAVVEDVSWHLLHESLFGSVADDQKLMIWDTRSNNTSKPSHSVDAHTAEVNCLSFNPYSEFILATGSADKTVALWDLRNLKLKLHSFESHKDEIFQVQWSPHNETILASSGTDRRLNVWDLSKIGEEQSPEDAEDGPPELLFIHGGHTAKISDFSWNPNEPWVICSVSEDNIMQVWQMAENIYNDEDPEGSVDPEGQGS

The test system of test [2] is PRC2-mediated histone H3 methylation. Nature of the test: Tri-Methyl Histone H3 (Lys 27) Sandwich ELISA in Pfeiffer cells: inhibition of PRC2-mediated histone H3 methylation. Type of test: cell-based, human. The following applies: Inhibition of EZH2-mediated histone H3 trimethylation, Pfeiffer cells (EZH2 A677G), 96 hours incubation. A digest of the protocol:
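Pfeiffer DLBCL cells (EZH2 A677G mutant) treated with 3-fold serial dilutions, 1µM to 0.15 nM final, for 96 hours at 37°C. Acid (0.4M HCl) histone extracts, neutralized, assayed by H3K27me3 sandwich ELISA with HRP/TMB read at 450 nm.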

Test [3] deals with Karpas 422 cells. Briefly: Karpas 422 cell viability, CTG (Cell Titre Glo) assay. It is filed as cell-based, human. The following applies: Inhibition of proliferation of Karpas 422 cells (EZH2 Y641N), viability measured Day 4, Day 7 or Day 11, time point of the tabulated values not stated. The method in brief:
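CellTiter-Glo viability IC50s taken at Day 4, Day 7 and Day 11 of continuous compound exposure (3-fold series, 10µM top, 1.5nM lowest) in RPMI/20% FBS at 37 °C. Y641N-mutant EZH2 lymphoma line seeded at 1000 cells per well; medium and compound replaced on Day 7 for Day 11 read.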

As a reminder, the IC50 is the concentration that gives 50% inhibition. For “8-(4-((dimethylamino)methyl)phenyl)-5-(((5-fluoro-2,3-dihydrobenzofuran-4-yl)methyl-d2)amino)imidazo[1,2-c]pyrimidine-2-carbonitrile [Example 165]”, the IC50 in test [1] was less than 100 nM; in test [2] it was 100 to 500 nM; in test [3], not above 250 nM.
Turning to `CN(C)C(=O)c1ccc(-c2cnc(NCc3c(F)ccc4c3CCO4)n3cc(C#N)nc23)c(Cl)c1` [Example 31, 3-chloro-4-(2-cyano-5-(((5-fluoro-2,3-dihydrobenzofuran-4-yl)methyl)amino)imidazo[1,2-c]pyrimidin-8-yl)-N,N-dimethylbenzamide], the values for the IC50 in test [1], in test [2] (Homo sapiens) and in test [3] (Homo sapiens) were less than 100 nM, not above 100 nM and not above 250 nM, respectively.
On to `Cc1c(C#N)cccc1-c1cnc(NCc2c(F)ccc3c2CCO3)n2cc(C#N)nc12` [Example 176, 8-(3-cyano-2-methylphenyl)-5-(((5-fluoro-2,3-dihydrobenzofuran-4-yl)methyl)amino)imidazo[1,2-c]pyrimidine-2-carbonitrile], for which the IC50 in test [1] is less than 100 nM; in test [2] (Homo sapiens) it was 100 to 500 nM; in test [3] (Homo sapiens), 250 to 500 nM.
In the case of `CN(C)CCc1ccc(-c2cnc(NCc3c(F)ccc4c3CCO4)n3cc(C#N)nc23)cc1` [Example 163, 8-(4-(2-(dimethylamino)ethyl)phenyl)-5-(((5-fluoro-2,3-dihydrobenzofuran-4-yl)methyl)amino)imidazo[1,2-c]pyrimidine-2-carbonitrile], the IC50 was less than 100 nM in test [1], 100 to 500 nM in test [2] (Homo sapiens) and not above 250 nM in test [3] (Homo sapiens).
The like results for `N#Cc1cn2c(NCc3c(F)ccc4c3CCO4)ncc(-c3ccc(CN4CCCC4=O)cc3)c2n1` [Example 49, 5-(((5-fluoro-2,3-dihydrobenzofuran-4-yl)methyl)amino)-8-(4-((2-oxopyrrolidin-1-yl)methyl)phenyl)imidazo[1,2-c]pyrimidine-2-carbonitrile] were, in that order, less than 100 nM, 100 to 500 nM and not above 250 nM.
The like results for `COC(=O)c1ccc(-c2cnc(NCc3c(F)ccc4c3CCO4)n3cc(C#N)nc23)cn1` [Example 166, methyl 5-(2-cyano-5-(((5-fluoro-2,3-dihydrobenzofuran-4-yl)methyl)amino)imidazo[1,2-c]pyrimidin-8-yl)picolinate] were, in that order, less than 100 nM, more than 500 nM and 250 to 500 nM.
On to `Cc1cc(-c2cnc(NCc3c(F)ccc4c3CCO4)n3cc(C(N)=O)nc23)n(C)n1` [Example 11, 8-(1,3-dimethyl-1H-pyrazol-5-yl)-5-(((5-fluoro-2,3-dihydrobenzofuran-4-yl)methyl)amino)imidazo[1,2-c]pyrimidine-2-carboxamide], for which the IC50 in test [1] is less than 100 nM; in test [2] (Homo sapiens), not above 100 nM; in test [3] (Homo sapiens) it was not above 250 nM.
On to “5-(2-cyano-5-(((5-fluoro-2,3-dihydrobenzofuran-4-yl)methyl)amino)imidazo[1,2-c]pyrimidin-8-yl)-1-methyl-1H-pyrazole-3-carboxylic acid [Example 157]”, for which the IC50 was less than 100 nM in test [1], not above 100 nM in test [2] and not above 250 nM in test [3].
In the case of `Cc1ccc(-c2cnc(NCc3c(F)ccc4c3CCO4)n3cc(C#N)nc23)cc1` [Example 175, 5-(((5-fluoro-2,3-dihydrobenzofuran-4-yl)methyl)amino)-8-(p-tolyl)imidazo[1,2-c]pyrimidine-2-carbonitrile], the IC50 was 100 to 500 nM in test [1], more than 500 nM in test [2] (Homo sapiens) and 250 to 500 nM in test [3] (Homo sapiens).
The like results for `CN(C)C(=O)c1cc(-c2cnc(NCc3c(F)ccc4c3CCO4)n3cc(C#N)nc23)n(C)n1` [Example 170, 5-(2-cyano-5-(((5-fluoro-2,3-dihydrobenzofuran-4-yl)methyl)amino)imidazo[1,2-c]pyrimidin-8-yl)-N,N,1-trimethyl-1H-pyrazole-3-carboxamide] were, in that order, less than 100 nM, not above 100 nM and not above 250 nM.
In the case of `CN(C)C(=O)c1cc(F)c(-c2cnc(NCc3c(F)ccc4c3CCO4)n3cc(C#N)nc23)cc1F` [Example 38, 4-(2-cyano-5-(((5-fluoro-2,3-dihydrobenzofuran-4-yl)methyl)amino)imidazo[1,2-c]pyrimidin-8-yl)-2,5-difluoro-N,N-dimethylbenzamide], the IC50 in test [1] is less than 100 nM; in test [2] (Homo sapiens), not above 100 nM; in test [3] (Homo sapiens), not above 250 nM.
The like results for `CNCc1ccc(-c2cnc(NCc3c(F)ccc4c3CCO4)n3cc(C#N)nc23)cc1F` [Example 197, 5-(((5-fluoro-2,3-dihydrobenzofuran-4-yl)methyl)amino)-8-(3-fluoro-4-((methylamino)methyl)phenyl)imidazo[1,2-c]pyrimidine-2-carbonitrile] were, in that order, less than 100 nM, 100 to 500 nM and not above 250 nM.
`CN1CCc2cc(-c3cnc(NCc4c(F)ccc5c4CCO5)n4cc(C#N)nc34)ccc2C1=O` [Example 168, 5-(((5-fluoro-2,3-dihydrobenzofuran-4-yl)methyl)amino)-8-(2-methyl-1-oxo-1,2,3,4-tetrahydroisoquinolin-6-yl)imidazo[1,2-c]pyrimidine-2-carbonitrile]: the half-maximal inhibitory concentration (IC50) in test [1] is less than 100 nM; in test [2] (Homo sapiens) it was 100 to 500 nM; in test [3] (Homo sapiens) it was not above 250 nM.
Take `Cc1ncc(-c2cnc(NCc3c(F)ccc4c3CCO4)n3cc(C#N)nc23)cn1` [Example 69, 5-(((5-fluoro-2,3-dihydrobenzofuran-4-yl)methyl)amino)-8-(2-methylpyrimidin-5-yl)imidazo[1,2-c]pyrimidine-2-carbonitrile]: the figures for the IC50 in test [1], in test [2] (Homo sapiens) and in test [3] (Homo sapiens) were less than 100 nM, 100 to 500 nM and not above 250 nM, respectively.
Regarding `COC(=O)c1cc(-c2cnc(NCc3c(F)ccc4c3CCO4)n3cc(C#N)nc23)n(C)n1` [Example 169, methyl 5-(2-cyano-5-(((5-fluoro-2,3-dihydrobenzofuran-4-yl)methyl)amino)imidazo[1,2-c]pyrimidin-8-yl)-1-methyl-1H-pyrazole-3-carboxylate], the IC50 in test [1] is less than 100 nM; in test [2] (Homo sapiens), 100 to 500 nM; in test [3] (Homo sapiens) it was not above 250 nM.
Take `Cn1cccc(-c2cnc(NCc3c(F)ccc4c3CCO4)n3cc(C#N)nc23)c1=O` [Example 156, 5-(((5-fluoro-2,3-dihydrobenzofuran-4-yl)methyl)amino)-8-(1-methyl-2-oxo-1,2-dihydropyridin-3-yl)imidazo[1,2-c]pyrimidine-2-carbonitrile]: the IC50 was 100 to 500 nM in test [1], more than 500 nM in test [2] (Homo sapiens) and more than 500 nM in test [3] (Homo sapiens).
As for `COCCOc1ncc(-c2cnc(NCc3c(F)ccc4c3CCO4)n3cc(C#N)nc23)cn1` [Example 191, 5-(((5-fluoro-2,3-dihydrobenzofuran-4-yl)methyl)amino)-8-(2-(2-methoxyethoxy)pyrimidin-5-yl)imidazo[1,2-c]pyrimidine-2-carbonitrile], the IC50 in test [1] lay within 100 to 500 nM; in test [2] (Homo sapiens), 100 to 500 nM; in test [3] (Homo sapiens) it was 250 to 500 nM.
Regarding `Cn1nccc(-c2cnc(NCc3c(F)ccc4c3CCO4)n3cc(C#N)nc23)c1=O` [Example 194, 5-(((5-fluoro-2,3-dihydrobenzofuran-4-yl)methyl)amino)-8-(2-methyl-3-oxo-2,3-dihydropyridazin-4-yl)imidazo[1,2-c]pyrimidine-2-carbonitrile], the concentration for half-maximal inhibition (IC50) in test [1] is 100 to 500 nM; in test [2] (Homo sapiens) it was 100 to 500 nM; in test [3] (Homo sapiens) it was not above 250 nM.
Turning to `COC1CN(Cc2ccc(-c3cnc(NCc4c(F)ccc5c4CCO5)n4cc(C#N)nc34)cc2)C1` [Example 50, 5-(((5-fluoro-2,3-dihydrobenzofuran-4-yl)methyl)amino)-8-(4-((3-methoxyazetidin-1-yl)methyl)phenyl)imidazo[1,2-c]pyrimidine-2-carbonitrile], the IC50 is less than 100 nM in test [1], 100 to 500 nM in test [2] (Homo sapiens) and not above 250 nM in test [3] (Homo sapiens).
The like results for `N#Cc1cn2c(NCc3c(F)ccc4c3CCO4)ncc(-c3ccc(S(=O)(=O)C(F)(F)F)cc3)c2n1` [Example 82, 5-(((5-fluoro-2,3-dihydrobenzofuran-4-yl)methyl)amino)-8-(4-((trifluoromethyl)sulfonyl)phenyl)imidazo[1,2-c]pyrimidine-2-carbonitrile] were, in that order, 100 to 500 nM, more than 500 nM and 250 to 500 nM.
The like results for `Cc1c(-c2cnc(NCc3c(F)ccc4c3CCO4)n3cc(C#N)nc23)cnc(CN(C)C)c1F` [Example 233, 8-(6-((dimethylamino)methyl)-5-fluoro-4-methylpyridin-3-yl)-5-(((5-fluoro-2,3-dihydrobenzofuran-4-yl)methyl)amino)imidazo[1,2-c]pyrimidine-2-carbonitrile] were, in that order, less than 100 nM, not above 100 nM and not above 250 nM.
